Laboratory results published in US12692269B2, “Therapeutic compounds” (Genentech, Inc., priority 2019, dated 2026).

Legend:
Format in all cases: binding
[1] = target: TEAD4 TAZ (amino acids 13-57) (Homo sapiens, UniProt Q15561); assay: TEAD4-TAZ HTRF (TR-FRET) protein-protein interaction assay; conditions: for TEAD4 TAZ HTRF combined: Max % Inhibition: TEAD4, TAZ peptide; for EC50: TEAD4-TAZ HTRF, TR-FRET 665 nm/615 nm, read-out: TEAD4 TAZ HTRF combined: EC50
Procedure: (§1) Purified His-tagged TEAD protein (YAP Binding Domain, amino acids 217-447) is pre-incubated with Europium labelled anti-His antibody tracer (Perkin Elmer Cat #AD0110). Small molecule Inhibitors are then incubated with the TEAD-Eu protein complex for 30 minutes to allow for binding to TEAD protein. Biotinylated YAP peptide for TEAD-YAP assays (AA's 50-100) or biotinylated TAZ peptide for TEAD-TAZ assays (AA's 13-57) that has been pre-incubated with streptavidin-xl665 acceptor (CIS-Bio Cat #610SAXAC) or is added to the compound-TEAD mix. The TEAD-YAP-inhibitor mixture is then incubated for 60 minutes at room temperature. All reactions are carried out in a polystyrene plate. After 60 minutes, the plate is read on a plate reader using TR-FRET mode with wavelengths of 665 nm/615 nm. If YAP or TAZ binds to TEAD as expected, a TR-FRET signal results from the proximity of YAP or TAZ and TEAD after binding. If an inhibitor such as peptide 17 (Selleckchem Cat #58164) interferes with YAP-TEAD or TAZ-TEAD binding, the disruption of the YAP or TAZ:TEAD interaction results in a decrease in TR-FRET signal. The potency of compounds as YAP:TEAD or TAZ:TEAD protein-protein interaction (PPi) inhibitors is determined by an IC50 or EC50 value generated using a non-linear four parameter curve fit.

[2] = target: TEAD3 TAZ (amino acids 13-57) (Homo sapiens, UniProt Q99594); assay: TEAD3-TAZ HTRF (TR-FRET) protein-protein interaction assay; conditions: for TEAD3 TAZ HTRF combined: Max % Inhibition: TEAD3, TAZ peptide; for EC50: TEAD3-TAZ HTRF, TR-FRET 665 nm/615 nm, read-out: TEAD3 TAZ HTRF combined: EC50
Procedure: as §1

[3] = target: TEAD2 TAZ (amino acids 13-57) (Homo sapiens, UniProt Q15562); assay: TEAD2-TAZ HTRF (TR-FRET) protein-protein interaction assay; conditions: for TEAD2 TAZ HTRF combined: Max % Inhibition: TEAD2, TAZ peptide; for EC50: TEAD2-TAZ HTRF, TR-FRET 665 nm/615 nm, read-out: TEAD2 TAZ HTRF combined: EC50
Procedure: as §1

TEAD1 YAP50-100 = TEAD1 YAP50-100 (Homo sapiens, UniProt P28347); assay: TEAD1-YAP HTRF (TR-FRET) protein-protein interaction assay; conditions: TEAD1, YAP peptide 50-100, HTRF; for EC50: read-out: TEAD1 YAP50-100 HTRF combined: EC50
Procedure: as §1

TEAD2 YAP50-100 = TEAD2 YAP50-100 (Homo sapiens, UniProt Q15562); assay: TEAD2-YAP HTRF (TR-FRET) protein-protein interaction assay; conditions: TEAD2, YAP peptide 50-100, HTRF; for EC50: read-out: TEAD2 YAP50-100 HTRF combined: EC50
Procedure: as §1

TEAD4 YAP50-100 = TEAD4 YAP50-100 (Homo sapiens, UniProt Q15561); assay: TEAD4-YAP HTRF (TR-FRET) protein-protein interaction assay; conditions: TEAD4, YAP peptide 50-100, HTRF; for EC50: read-out: TEAD4 YAP50-100 HTRF combined: EC50
Procedure: as §1

TEAD3 YAP50-100 = TEAD3 YAP50-100 (Homo sapiens, UniProt Q99594); assay: TEAD3-YAP HTRF (TR-FRET) protein-protein interaction assay; conditions: TEAD3, YAP peptide 50-100, HTRF; for EC50: read-out: TEAD3 YAP50-100 HTRF combined: EC50
Procedure: as §1

[4] = target: TEAD1 TAZ (amino acids 13-57) (Homo sapiens, UniProt P28347); assay: TEAD1-TAZ HTRF (TR-FRET) protein-protein interaction assay; conditions: for TEAD1 TAZ HTRF combined: Max % Inhibition: TEAD1, TAZ peptide; for EC50: TEAD1-TAZ HTRF, TR-FRET 665 nm/615 nm, read-out: TEAD1 TAZ HTRF combined: EC50
Procedure: as §1

TEAD4 TAZ (amino acids 13-57), sequence (Q15561 217-434 limits assumed): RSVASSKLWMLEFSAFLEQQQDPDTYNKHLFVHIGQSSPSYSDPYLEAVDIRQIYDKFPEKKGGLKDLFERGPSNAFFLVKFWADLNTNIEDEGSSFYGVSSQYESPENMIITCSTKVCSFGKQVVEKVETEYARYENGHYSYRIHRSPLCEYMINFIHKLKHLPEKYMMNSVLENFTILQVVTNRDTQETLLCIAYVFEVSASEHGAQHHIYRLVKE
TEAD4 YAP50-100, sequence (Q15561 217-434 limits assumed): as above
TEAD2 TAZ (amino acids 13-57), sequence (Q15562 217-447): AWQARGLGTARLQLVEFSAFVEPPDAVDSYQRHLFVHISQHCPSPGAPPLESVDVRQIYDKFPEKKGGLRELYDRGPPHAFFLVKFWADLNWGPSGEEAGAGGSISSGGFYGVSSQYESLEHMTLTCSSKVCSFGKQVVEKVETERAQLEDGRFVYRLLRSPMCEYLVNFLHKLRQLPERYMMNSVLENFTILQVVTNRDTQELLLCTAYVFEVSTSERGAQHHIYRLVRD
TEAD2 YAP50-100, sequence (Q15562 217-447): as above
TEAD1 YAP50-100, sequence (P28347 167-426 limits assumed): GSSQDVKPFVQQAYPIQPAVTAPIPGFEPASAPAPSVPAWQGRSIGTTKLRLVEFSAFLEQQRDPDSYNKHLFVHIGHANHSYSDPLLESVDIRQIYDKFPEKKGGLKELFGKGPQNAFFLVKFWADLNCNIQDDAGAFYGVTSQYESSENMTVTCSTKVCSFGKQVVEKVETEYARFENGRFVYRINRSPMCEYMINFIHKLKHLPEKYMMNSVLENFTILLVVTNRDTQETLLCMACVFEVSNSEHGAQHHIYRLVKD
TEAD1 TAZ (amino acids 13-57), sequence (P28347 167-426 limits assumed): as above
TEAD3 YAP50-100, sequence (Q99594 173-435 limits assumed): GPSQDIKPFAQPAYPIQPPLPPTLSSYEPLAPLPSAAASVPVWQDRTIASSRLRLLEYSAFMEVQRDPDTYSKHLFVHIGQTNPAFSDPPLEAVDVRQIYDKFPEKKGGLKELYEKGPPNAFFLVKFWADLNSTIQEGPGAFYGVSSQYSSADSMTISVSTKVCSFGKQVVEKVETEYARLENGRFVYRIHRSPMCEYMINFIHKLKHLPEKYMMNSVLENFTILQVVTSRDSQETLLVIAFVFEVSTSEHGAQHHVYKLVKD
TEAD3 TAZ (amino acids 13-57), sequence (Q99594 173-435 limits assumed): as above

TEAD4 TAZ HTRF combined: Max % Inhibition [1] [%]	EC50 [1] [nM]	TEAD3 TAZ HTRF combined: Max % Inhibition [2] [%]	EC50 [2] [nM]	TEAD2 TAZ HTRF combined: Max % Inhibition [3] [%]	EC50 [3] [nM]	TEAD1 YAP50-100 HTRF combined: Max % Inhibition (TEAD1 YAP50-100) [%]	EC50 (TEAD1 YAP50-100) [nM]	TEAD2 YAP50-100 HTRF combined: Max % Inhibition (TEAD2 YAP50-100) [%]	EC50 (TEAD2 YAP50-100) [nM]	TEAD4 YAP50-100 HTRF combined: Max % Inhibition (TEAD4 YAP50-100) [%]	EC50 (TEAD4 YAP50-100) [nM]	TEAD3 YAP50-100 HTRF combined: Max % Inhibition (TEAD3 YAP50-100) [%]	EC50 (TEAD3 YAP50-100) [nM]	TEAD1 TAZ HTRF combined: Max % Inhibition [4] [%]	EC50 [4] [nM]	Structure (SMILES)
51.0	2100	70.0	530	78.5	120	76.0	130	68.0	80	49.5	2000	68.0	440	70.0	140	C[C@H]1[C@@H](CF)CN1C(=O)c1c(-c2ncccn2)nn2c(=O)cc(-c3ccc(C4CCCCC4)cc3)[nH]c12 (single isomer, unassigned) [Isomer B, Example 40]
57.0	30	73.8	140	74.4	20	80.0	80	77.8	20	57.2	30	80.2	120	71.0	70	Cc1nccnc1-c1nn2c(=O)cc(-c3ccc(C4CCCCC4)cc3)[nH]c2c1C(=O)N1C[C@H](CF)[C@@H]1C (single isomer, unassigned) [Isomer B, Example 41]
48.5	20	60.0	90	62.0	10	68.0	40	68.0	10	52.5	20	68.0	80	59.0	60	Cc1nccnc1-c1nn2c(=O)cc(-c3ccc(CC4CCCC4)cc3)[nH]c2c1C(=O)N1C[C@H](CF)[C@@H]1C (single isomer, unassigned) [Isomer B, Example 42]
50.0	270	65.5	150	71.5	20	65.0	50	73.0	20	51.0	370	66.0	140	60.0	50	C[C@@H]1[C@H](CF)CN1C(=O)c1c(-c2ncccn2)nn2c(=O)cc(-c3ccc(CC4CCCC4)cc3)[nH]c12 (single isomer, unassigned) [Isomer B, Example 43]
52.0	20	56.0	50	67.5	10	69.0	30	70.0	10	50.5	20	61.5	50	59.5	40	C[C@H]1[C@@H](CF)CN1C(=O)c1c(-c2cnccn2)nn2c(=O)cc(-c3ccc(CC4CCCC4)cc3)[nH]c12 (single isomer, unassigned) [Isomer B, Example 44, Cis-5-(4-(cyclopentylmethyl)phenyl)-3-(3-(fluoromethyl)-2-methylazetidine-1-carbonyl)-2-(pyrazin-2-yl)pyrazolo[1,5-a]pyrimidin-7(4H)-one]
40.3	600	63.0	170	69.2	10	70.0	90	74.4	10	55.3	330	75.3	110	61.2	90	CN(C)C(=O)c1nn2c(=O)cc(-c3ccc(C4CCCCC4)cc3)[nH]c2c1C(=O)N1CC(CF)C1 [Compound 1, 5-(4-Cyclohexylphenyl)-3-(3-(fluoromethyl)azetidine-1-carbonyl)-N,N-dimethyl-7-oxo-4,7-dihydropyrazolo[1,5-a]pyrimidine-2-carboxamide]
42.0	330	44.0	120	66.5	10	62.0	60	68.0	10	51.5	470	60.5	120	47.0	70	CN(C)C(=O)c1nn2c(=O)cc(-c3ccc(CC4CCCC4)cc3)[nH]c2c1C(=O)N1CC(CF)C1 [Compound 2, 5-(4-(Cyclopentylmethyl)phenyl)-3-(3-(fluoromethyl)azetidine-1-carbonyl)-N,N-dimethyl-7-oxo-4,7-dihydropyrazolo[1,5-a]pyrimidine-2-carboxamide]
29.0	170	44.0	190	55.0	10	55.0	60	56.5	10	39.5	210	66.5	230	44.0	90	CN(C)C(=O)c1nn2c(=O)cc(-c3cc(F)c(C4CCCCC4)c(F)c3)[nH]c2c1C(=O)N1CC(CF)C1 [Compound 3, 5-(4-Cyclohexyl-3,5-difluorophenyl)-3-(3-(fluoromethyl)azetidine-1-carbonyl)-N,N-dimethyl-7-oxo-4,7-dihydropyrazolo[1,5-a]pyrimidine-2-carboxamide]
